Experimental data as given in ChEMBL document CHEMBL1201862, “PubChem BioAssay data set” (2004).
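Step 1: Grow cells in 96-well plates. Step 2: Expose to compound for 48 hours at 5 concentrations. Step 3: Interpolate endpoints linearly; if unreached, use highest concentration. At the GI50, growth is halved.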 Active and inactive are the calls of the source. Cut-off read from the data, not from the text of the source: active = GI50 up to about 1.1 µM and inactive = higher.

Experiments:
Test in all cases: growth of human tumour cells (NCI), 48 h
HCT-116 = system: HCT-116
UO-31 = system: UO-31
PC-3 = system: PC-3
TK-10 = system: TK-10
T47D = system: T47D
SW-620 = system: SW-620
SNB-19 = system: SNB-19
SF-539 = system: SF-539
UACC-257 = system: UACC-257
EKVX = system: EKVX
RPMI-8226 = system: RPMI-8226
IGROV-1 = system: IGROV-1
K562 = system: K562
LOX IMVI = system: LOX IMVI
OVCAR-4 = system: OVCAR-4
OVCAR-8 = system: OVCAR-8
CCRF-CEM = system: CCRF-CEM
U-251 = system: U-251
OVCAR-5 = system: OVCAR-5
HL-60 = system: HL-60

Measured: GI50

CCC(NC1=NCCO1)c1cccs1 (stereo unspecified)
inactive: HCT-116 14.1 µM | UO-31 18.7 µM | PC-3 13.4 µM | TK-10 15.8 µM | T47D 16.4 µM | SW-620 24.3 µM | SNB-19 16.3 µM | SF-539 15.5 µM | UACC-257 18 µM | EKVX 16.5 µM | RPMI-8226 25.1 µM | IGROV-1 20.8 µM | K562 5.55 µM | LOX IMVI 23.7 µM | OVCAR-4 23.9 µM | OVCAR-8 16.7 µM | CCRF-CEM 7.36 µM | U-251 13.5 µM | OVCAR-5 17 µM | HL-60 18.6 µM

Cc1cccc2c1C(=O)/C(=C/c1ccccc1C(=O)O)C2
inactive: HCT-116 98.6 µM | UO-31 > 100 µM | PC-3 > 100 µM | TK-10 > 100 µM | T47D > 100 µM | SW-620 > 100 µM | SNB-19 > 100 µM | SF-539 > 100 µM | UACC-257 > 100 µM | EKVX 66.8 µM | RPMI-8226 32.8 µM | IGROV-1 > 100 µM | K562 > 100 µM | LOX IMVI > 100 µM | OVCAR-4 > 100 µM | OVCAR-8 > 100 µM | CCRF-CEM > 100 µM | U-251 > 100 µM | OVCAR-5 > 100 µM | HL-60 > 100 µM

O=C(O)[C@H](CCC[C@H]1C(=O)O[C@H](c2ccccc2)[C@H](c2ccccc2)N1C(=O)OCc1ccccc1)N[C@@H](c1ccccc1)[C@H](O)c1ccccc1
inactive: HCT-116 20.8 µM | UO-31 > 100 µM | PC-3 37.1 µM | TK-10 40.7 µM | T47D 43.3 µM | SW-620 25.1 µM | SNB-19 30.3 µM | SF-539 18.6 µM | UACC-257 39.7 µM | EKVX 38.6 µM | RPMI-8226 22.4 µM | IGROV-1 42.8 µM | K562 36.8 µM | LOX IMVI 22.9 µM | OVCAR-4 32.2 µM | OVCAR-8 20.5 µM | CCRF-CEM 20 µM | U-251 16 µM | OVCAR-5 38.4 µM | HL-60 17.4 µM

COc1cc2c3cc1Oc1c(O)c(OC)cc4c1[C@H](Cc1ccc(cc1)Oc1cc(ccc1O)C[C@H]3N(C)CC2)N(C)CC4
inactive: HCT-116 5.77 µM | UO-31 12.6 µM | PC-3 8.51 µM | TK-10 13.6 µM | T47D 17.9 µM | SW-620 16.5 µM | SNB-19 20.9 µM | SF-539 3.23 µM | UACC-257 15 µM | EKVX 16.7 µM | RPMI-8226 5.33 µM | IGROV-1 13.8 µM | K562 2.56 µM | LOX IMVI 4.94 µM | OVCAR-4 16.9 µM | OVCAR-8 14.9 µM | CCRF-CEM 10.4 µM | U-251 9.48 µM | OVCAR-5 23.6 µM | HL-60 6.68 µM

C(=N\c1ccc(-c2nc3ccccc3[nH]2)cc1)/c1ccco1
inactive: HCT-116 57.3 µM | UO-31 75.7 µM | PC-3 33.6 µM | TK-10 > 100 µM | T47D 38.5 µM | SW-620 89.1 µM | SF-539 77.8 µM | UACC-257 > 100 µM | EKVX > 100 µM | RPMI-8226 34.8 µM | IGROV-1 > 100 µM | K562 37.6 µM | LOX IMVI 67 µM | OVCAR-4 70 µM | OVCAR-8 34.4 µM | CCRF-CEM 16.5 µM | OVCAR-5 > 100 µM | HL-60 24.3 µM

COc1cc2c(cc1C)NC(=O)/C2=C\c1cccnc1
inactive: HCT-116 15.1 µM | UO-31 15.6 µM | PC-3 30.1 µM | TK-10 14.9 µM | T47D 3.91 µM | SW-620 26.8 µM | SNB-19 12.6 µM | SF-539 20.4 µM | UACC-257 13.1 µM | EKVX 19.8 µM | RPMI-8226 26.9 µM | K562 9.4 µM | LOX IMVI 18.7 µM | OVCAR-4 18.7 µM | OVCAR-8 15.5 µM | CCRF-CEM 20.8 µM | U-251 12.9 µM | OVCAR-5 17.6 µM | HL-60 5 µM

COc1cc2c(cc1OC)[C@@](C)(C(O)C(O)C(C)(C)O)NCC2 (stereo partly specified)
inactive: HCT-116 > 100 µM | UO-31 > 100 µM | PC-3 > 100 µM | TK-10 > 100 µM | T47D > 100 µM | SNB-19 > 100 µM | SF-539 > 100 µM | UACC-257 > 100 µM | EKVX > 100 µM | RPMI-8226 > 100 µM | IGROV-1 > 100 µM | K562 > 100 µM | LOX IMVI > 100 µM | OVCAR-4 > 100 µM | OVCAR-8 > 100 µM | CCRF-CEM > 100 µM | U-251 > 100 µM | OVCAR-5 > 100 µM | HL-60 > 100 µM
